The assay addresses T1, human GR (Homo sapiens, UniProt P04150).
T1 sequence (P04150 1-777): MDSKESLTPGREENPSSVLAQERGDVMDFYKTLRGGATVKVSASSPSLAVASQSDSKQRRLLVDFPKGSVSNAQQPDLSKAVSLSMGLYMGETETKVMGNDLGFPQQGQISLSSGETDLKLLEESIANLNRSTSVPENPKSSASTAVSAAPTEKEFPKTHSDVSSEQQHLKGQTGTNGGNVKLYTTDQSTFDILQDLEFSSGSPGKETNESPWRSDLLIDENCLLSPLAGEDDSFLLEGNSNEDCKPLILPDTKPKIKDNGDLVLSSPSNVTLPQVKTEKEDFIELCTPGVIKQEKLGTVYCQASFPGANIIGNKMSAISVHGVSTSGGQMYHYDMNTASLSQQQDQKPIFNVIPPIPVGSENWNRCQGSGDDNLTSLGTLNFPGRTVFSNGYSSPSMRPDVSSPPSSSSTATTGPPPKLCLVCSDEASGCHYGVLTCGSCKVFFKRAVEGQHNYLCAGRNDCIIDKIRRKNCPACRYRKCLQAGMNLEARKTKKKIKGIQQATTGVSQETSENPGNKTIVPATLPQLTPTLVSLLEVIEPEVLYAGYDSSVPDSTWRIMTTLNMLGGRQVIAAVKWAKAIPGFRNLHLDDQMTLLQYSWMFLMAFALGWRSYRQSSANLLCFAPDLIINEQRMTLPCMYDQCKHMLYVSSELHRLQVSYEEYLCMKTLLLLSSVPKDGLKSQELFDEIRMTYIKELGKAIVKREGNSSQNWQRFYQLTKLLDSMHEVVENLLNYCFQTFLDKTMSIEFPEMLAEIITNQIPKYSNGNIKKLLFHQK
In words: Transrepression Assay (GITAR), TNFα-β-lactamase reporter in U937 cells. Format: cell-based. Also on record: U937 cells contain an endogenous glucocorticoid receptor (GR); endogenous in cells; host or cells: U937 cells stably transfected with the TNF-alpha promoter/beta-lactamase reporter. Conditions: for GITAR > GRAMM % SEP: GITAR Emax minus GRAMMER Emax; for EC50: U937 cells, inflection point, read-out: Transrepression U937 Cells GITAR IP. An excerpt: This assay assesses the ability of test compounds to control transcription from the TNFα-β-lactamase reporter gene in U937 cells, a human myelomonocytic leukemia cell line that naturally expresses the human GR. The assay measures compound dependent-repression of the TNFa promoter linked to a reporter gene.
The human U937 cells that had been stablely transfected with the TNF-α promoter driving β-lactamase are used for this assay. U937 cells contain an endogenous glucocorticoid receptor (GR). Cells are maintained in RPMI 1640 Growth medium (Gibco Cat#11875-093) containing 25 mM HEPES, 10% FBS, 2 mM L-Glutamine, 1 mM Sodium pyruvate, 25 μg/ml Gentamicin (Gibco Cat#15710-064), 1:1000 2-Mercaptoethanol (Gibco Cat#21985-023) and 0.8 mg/ml G418 (Gibco Cat#10131-027). The density of the cells in the flask needs to be about 1×10^6−3×10^6/ml at the time of harvest. Usually, the cells are split to 1.2˜1.4×10^5/ml (1:10) 3 days prior to the assay. 50,000 cells/well are plated in 96 well black-walled plates the day of assay. Test compounds are added 10 μL/well, and cells are incubated at 37° C. for 30˜45 min. For assaying compounds, first dilute 1:10 in DMSO to make 1 mM, then further dilute 1:100 in medium to make 10× stock prior to adding to the cells. Add 50 ng/mlPMA (Sigma, cat# P8139) 10 μL/well to a final concentration 5 ng/ml, and 1 μg/ml LPS (Sigma, cat# L4130) 10 μL/well to a final concentration 100 ng/ml. Incubate cells at 37° C. overnight for ˜18 hr. PMA is stored frozen as 100 μg/ml stock in DMSO. Dilute 1:10 in DMSO for a working stock of 10 μg/ml and store at −20 C. For assaying, dilute the 10 μg/ml working stock 1:200 in medium to make a 10× solution (50 ng/ml). Store frozen LPS at 1 mg/ml in PBS, dilute 1:1000 in medium to make 10× (1 μg/ml) for the assay. Add 6× loading buffer (CCF2-AM) 20 μL/well, and incubate at room temperature for 70˜90 min. […] The activity repressed by 100 nM dexamethasone alone is set as 100% activity.

Where [1] appears, read: U-937, U937 cells, maximum activity, read-out: Transrepression U937 Cells GITAR Emax.
Where [2] appears, read: U-937, activity repressed by 100 nM dexamethasone alone set as 100%, read-out: maximal activity in the transrepression (GITAR) assay.

The structures appear in SMILES notation. Read-outs that look alike come from different tables or passages of the source.

As to `CCCCS(=O)(=O)N(CCc1ccccc1F)C[C@H]1CCC2=Cc3c(cnn3-c3ccc(F)cc3)C[C@@]21C` [Example 102, N-[2-(2-fluorophenyl)ethyl]-N-{[(4αR,5S)-1-(4-fluorophenyl)-4α-methyl-1,4,4α,5,6,7-hexahydrocyclopenta[f]indazol-5-yl]methyl}butane-1-sulfonamide], the “GITAR > GRAMM % SEP” value amounted to 8.2% and the EC50 is 95.1 nM. The Emax under setting [1] stood at 86.5%. The Emax under setting [2] was over 5%.

Regarding `CC(C)CS(=O)(=O)N(CCc1ccccc1F)C[C@H]1CCC2=Cc3c(cnn3-c3ccc(F)cc3)C[C@@]21C` [Example 103, N-[2-(2-fluorophenyl)ethyl]-N-{[(4αR,5S)-1-(4-fluorophenyl)-4α-methyl-1,4,4α,5,6,7-hexahydrocyclopenta[f]indazol-5-yl]methyl}-2-methylpropane-1-sulfonamide], the “GITAR > GRAMM % SEP” value came to 7.7% and the EC50 was 177 nM. For the same compound, the Emax under setting [1] came to 76.5%. Moreover, the Emax under setting [2] was over 5%.

On to `CCCCCCCCS(=O)(=O)N(CCc1ccccc1F)C[C@H]1CCC2=Cc3c(cnn3-c3ccc(F)cc3)C[C@@]21C` [Example 104, N-[2-(2-fluorophenyl)ethyl]-N-{[(4αR,5S)-1-(4-fluorophenyl)-4α-methyl-1,4,4α,5,6,7-hexahydrocyclopenta[f]indazol-5-yl]methyl}octane-1-sulfonamide], for which the “GITAR > GRAMM % SEP” value is recorded as 1.0% and the EC50 is 153 nM. The Emax under setting [1] was 10.2%. For the same compound, the Emax under setting [2] is over 5%.

`C[C@]12Cc3cnn(-c4ccc(F)cc4)c3C=C1CC[C@@H]2CN(CCc1ccccc1F)S(=O)(=O)Cc1ccc(Cl)cc1Cl` [Example 105, 1-(2,4-dichlorophenyl)-N-[2-(2-fluorophenyl)ethyl]-N-{[(4αR,5S)-1-(4-fluorophenyl)-4α-methyl-1,4,4α,5,6,7-hexahydrocyclopenta[f]indazol-5-yl]methyl}methanesulfonamide]: the “GITAR > GRAMM % SEP” value was determined as 3.3% and the EC50 was determined as 109 nM. In addition, the Emax under setting [1] is 88.8%. The Emax under setting [2] is over 5%.

Turning to `C[C@]12Cc3cnn(-c4ccc(F)cc4)c3C=C1CC[C@@H]2CN(CCc1ccccc1F)S(=O)(=O)Cc1cccc(Cl)c1` [Example 106, 1-(3-chlorophenyl)-N-[2-(2-fluorophenyl)ethyl]-N-{[(4αR,5S)-1-(4-fluorophenyl)-4α-methyl-1,4,4α,5,6,7-hexahydrocyclopenta[f]indazol-5-yl]methyl}methanesulfonamide], the “GITAR > GRAMM % SEP” value came to 2.5% and the EC50 is 44.1 nM. In addition, the Emax under setting [1] came out at 85.3%. The Emax under setting [2] was over 5%.

For `C[C@]12Cc3cnn(-c4ccc(F)cc4)c3C=C1CC[C@@H]2CN(CCc1ccccc1F)S(=O)(=O)Cc1ccccc1Cl` [Example 107, 1-(2-chlorophenyl)-N-[2-(2-fluorophenyl)ethyl]-N-{[(4αR,5S)-1-(4-fluorophenyl)-4α-methyl-1,4,4α,5,6,7-hexahydrocyclopenta[f]indazol-5-yl]methyl}methanesulfonamide], the “GITAR > GRAMM % SEP” value was determined as 11.4% and the EC50 turned out to be 54.1 nM. Under setting [1], the Emax was found to be 84.4%. Moreover, under setting [2], the Emax was over 5%.

Regarding `C[C@]12Cc3cnn(-c4ccc(F)cc4)c3C=C1CC[C@@H]2CN(CCc1ccccc1F)S(=O)(=O)Cc1ccccc1C(F)(F)F` [Example 108, N-[2-(2-fluorophenyl)ethyl]-N-{[(4αR,5S)-1-(4-fluorophenyl)-4α-methyl-1,4,4α,5,6,7-hexahydrocyclopenta[f]indazol-5-yl]methyl}-1-[2-(trifluoromethyl)phenyl]methanesulfonamide], the “GITAR > GRAMM % SEP” value stood at 24.6% and the EC50 came out at 185 nM. In addition, under setting [1], the Emax came out at 70.5%. Further, under setting [2], the Emax was over 5%.

For `CC(C1CCC2=Cc3c(cnn3-c3ccc(F)cc3)C[C@@]21C)N(CC1CC1)S(=O)(=O)CC(F)(F)F` (stereo partly drawn) [Example 109, N-(cyclopropylmethyl)-2,2,2-trifluoro-N-{1-[(4αR)-1-(4-fluorophenyl)-4α-methyl-1,4,4α,5,6,7-hexahydrocyclopenta[f]indazol-5-yl]ethyl}ethanesulfonamide], the “GITAR > GRAMM % SEP” value was 37.0% and the EC50 came out at 190 nM. Besides, the Emax under setting [1] came out at 91.1%. Moreover, the Emax under setting [2] was over 5%.

With `C[C@]12Cc3cnn(-c4ccc(F)cc4)c3C=C1CC[C@@H]2CN(CC1CCCO1)S(=O)(=O)Cc1cccc(C(F)(F)F)c1` (stereo partly drawn) [Example 110, N-{[(4αR,5S)-1-(4-fluorophenyl)-4α-methyl-1,4,4α,5,6,7-hexahydrocyclopenta[f]indazol-5-yl]methyl}-N-(tetrahydrofuran-2-ylmethyl)-1-[3-(trifluoromethyl)phenyl]methanesulfonamide], the “GITAR > GRAMM % SEP” value was determined as 21.3% and the EC50 was found to be 626 nM. Besides, under setting [1], the Emax was 26.2%. For the same compound, the Emax under setting [2] was over 5%.

Regarding `C[C@]12Cc3cnn(-c4ccc(F)cc4)c3C=C1CC[C@@H]2CN(CCc1ccccc1F)S(=O)(=O)Cc1ccc(Cl)c(Cl)c1` [Example 111, 1-(3,4-dichlorophenyl)-N-[2-(2-fluorophenyl)ethyl]-N-{[(4αR,5S)-1-(4-fluorophenyl)-4α-methyl-1,4,4α,5,6,7-hexahydrocyclopenta[f]indazol-5-yl]methyl}methanesulfonamide], the “GITAR > GRAMM % SEP” value is on record as 38.1% and the EC50 is 325 nM. Moreover, the Emax under setting [1] came out at 75.7%. In addition, under setting [2], the Emax is over 5%.

In the case of `C[C@H](O)CN(C[C@H]1CCC2=Cc3c(cnn3-c3ccc(F)cc3)C[C@@]21C)S(=O)(=O)c1ccc(F)c(Cl)c1` [Example 112, 3-chloro-4-fluoro-N-{[(4αR,5S)-1-(4-fluorophenyl)-4α-methyl-1,4,4α,5,6,7-hexahydrocyclopenta[f]indazol-5-yl]methyl}-N-[(2S)-2-hydroxypropyl]benzenesulfonamide], the “GITAR > GRAMM % SEP” value is reported as 32.3% and the EC50 is 337 nM. Besides, the Emax under setting [1] turned out to be 65.7%. For the same compound, the Emax under setting [2] was over 5%.

For `C[C@H](O)CN(C[C@H]1CCC2=Cc3c(cnn3-c3ccc(F)cc3)C[C@@]21C)S(=O)(=O)CC(F)(F)F` [Example 113], the “GITAR > GRAMM % SEP” value is 8.7% and the EC50 was 59 nM. Moreover, the Emax under setting [1] stood at 94%. Moreover, under setting [2], the Emax was over 5%.

For `C[C@@H](CN(C[C@H]1CCC2=Cc3c(cnn3-c3ccc(F)cc3)C[C@@]21C)S(=O)(=O)CC(F)(F)F)OS(=O)(=O)CC(F)(F)F` [Example 114, (1S)-2-{{[(4αR,5S)-1-(4-fluorophenyl)-4α-methyl-1,4,4α,5,6,7-hexahydrocyclopenta[f]indazol-5-yl]methyl}[(2,2,2-trifluoroethyl)sulfonyl]amino}-1-methylethyl 2,2,2-trifluoroethanesulfonate], the “GITAR > GRAMM % SEP” value is on record as 18.2% and the EC50 was 148 nM. In addition, the Emax under setting [1] came to 98.5%. The Emax under setting [2] is over 5%.

Values taken from US8299048B2, “Hexahydrocyclopentyl[f]indazole sulfonamides and derivatives thereof as selective glucocorticoid receptor modulators” (Merck Sharp & Dohme Corp., priority 2008, dated 2012).
